Biological target: T1, Lyn (Homo sapiens, UniProt P07948)
T1 construct: endogenous Lyn in BL2 cells
Experiment: western blot of P-Lyn (Y396) in anti-IgM stimulated BL2 cells, […] for […] h
Format: cell-based

T1 sequence (P07948 2-512): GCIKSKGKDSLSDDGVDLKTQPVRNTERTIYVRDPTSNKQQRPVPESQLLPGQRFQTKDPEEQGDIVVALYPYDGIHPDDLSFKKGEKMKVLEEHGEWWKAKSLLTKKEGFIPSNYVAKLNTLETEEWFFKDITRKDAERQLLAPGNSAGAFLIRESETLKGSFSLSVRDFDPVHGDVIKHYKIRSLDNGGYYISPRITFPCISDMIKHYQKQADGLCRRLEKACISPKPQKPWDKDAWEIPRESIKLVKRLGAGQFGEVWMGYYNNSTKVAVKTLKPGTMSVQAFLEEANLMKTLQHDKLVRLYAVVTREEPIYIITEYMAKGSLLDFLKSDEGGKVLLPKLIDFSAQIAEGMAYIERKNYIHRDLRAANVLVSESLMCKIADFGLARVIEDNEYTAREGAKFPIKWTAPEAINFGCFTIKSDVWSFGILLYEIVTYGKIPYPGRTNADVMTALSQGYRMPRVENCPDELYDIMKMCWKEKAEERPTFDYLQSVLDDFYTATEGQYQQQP

Cc1nc(Nc2ncc(C(=O)Nc3c(C)cccc3Cl)s2)cc(N2CCN(CCO)CC2)n1 [dasatinib]
western blot of P-Lyn (Y396) in anti-IgM stimulated BL2 cells, 0.1 or 1.0 μM for: Dasatinib and ibrutinib selectively inhibited their respective targets as measured using anti-P-Lyn, anti-P-SFKs, and anti-P-BTK antibodies

— article PMC7582192, “Targeting N-myristoylation for therapy of B-cell lymphomas” (Nature Communications, 2020)
